# Data as given in patent US12357624B2, “Low dose pridopidine for Parkinson's Disease and other diseases associated with parkinsonism” (PRILENIA NEUROTHERAPEUTICS LTD., priority 2019, dated 2025).
# Where two headings read alike, the source gives them in different places.
# Assays:
# 6-OHDA-lesioned mice = tested on: 6-OHDA-lesioned mice
# Experimental: The study was performed in male C57B16J mice weighing approx. 25 g and having an age of 8 to 9 weeks at the beginning of the experiments. A total of 65 wild-type mice and 52 S1R knockout (KO) mice were used. S1R knockout mice and wild-type littermates (both genders) were bred on a C57BL6J background. Our S1R KO line is derived from the well-characterized Sigmar1^Gt(OST422756)Lex mouse strain distributed by the Mutant Mouse Resource Regional Centre (MMRRC) The mice were housed under a 12-h light/dark cycle with free access to food and water.
# Lesions were performed according to previously described procedures [Francardo V, Bez F, Wieloch T, Nissbrandt H, Ruscher K, Cenci 33. MA. […] Brain: A Journal of Neurology. […] 6-OHDA-HCl (Sigma-Aldrich AB, Stockholm, Sweden) was freshly dissolved in 0.02% ascorbate-saline at the concentration of 3.2 mg free base per milliliter. […] The solution was injected via a glass capillary (tip diameter−50 (1 m) at the rate of 0.5 (1 L/min, and the capillary was left in place for 2 mi after each injection.
# The first injection was given immediately upon completion of lesion surgery. […] Forelimb use asymmetry during vertical exploration provides a validated measure of forelimb akinesia in hemiparkinsonian rodents [Lundblad M, Andersson M, Winkler C, Kirik D, Wierup N, Cenci M A. Pharmacological validation of behavioural measures of akinesia and dyskinesia in a rat model of Parkinson's disease. The European Journal of Neuroscience. […] The test was executed as in [Francardo V, Bez F, Wieloch T, Nissbrandt H, Ruscher K, Cenci 33. MA. […] The number of supporting wall contacts performed independently by the paw contralateral to the lesion was expressed as a percentage of all supporting wall contacts in each session.
# [1] = tested on: TH-positive neurons in the substantia nigra compacta; settings: 35 days
# Experimental: (§1) Mice allocated to immunohistochemistry were perfusion-fixed on the day after the last rug/saline administration (interval of approx. 20 h from the last injection). Animals were deeply anesthetized with sodium pentobarbital (240 mg/kg, i.p.) and transcardially perfused with 0.9% saline solution, followed by ice-cold buffered 4% paraformaldehyde (pH 7.4). […] Coronal sections of 30 (1 m thickness were cut on a sliding microtome and stored at −20° C. in a nonfreezing solution (30% ethylene glycol and 30% glycerol in 0.1 M phosphate buffer).
# (§2) Immunohistochemistry and quantitative analyses were performed according to established protocols [Francardo V, Bez F, Wieloch T, Nissbrandt H, Ruscher K, Cenci 33. MA. Neurobiology of Disease. […] Experimental Eye Research. […] (rabbit anti-TH antiserum from Pel-Freez, Rogers, AR, 1:1000) and Cluster of Differentiation 68 (CD68) (rat anti-CD68 antiserum from AbD Serotec, Kidlington, Oxfordshire, UK; 1:1000). Quantitative analyses were performed by an experimentally blinded investigator using the following methods.
# The number of TH-positive cell bodies in the substantia nigra compacta (SNc) was determined using unbiased stereology according to the optical fractionator method as in [West M J. Stereological methods for estimating the total number of neurons and synapses: issues of precision and bias. Trends in Neurosciences.
# Analysis was performed using a Nikon 80i microscope with an x-y motorized stage controlled by the NewCAST software (Visiopharm). The sampling fraction was chosen so as to count at least 100 neurons per side per animal following an established protocol [Francardo V, Recchia A, Popovic N, Andersson D, Nissbrandt H, Cenci M A. Impact of the lesion procedure on the profiles of motor impairment and molecular responsiveness to L-DOPA in the 6-hydroxydopamine mouse model of Parkinson's disease. Neurobiology of Disease. […] Trends in Neurosciences.
# [2] = tested on: TH-immunoreactive fibers in the lateral striatum; settings: chronic
# Experimental: as §1, §2
# Results were expressed as the total number of TH-immunopositive pixels per sample area (averaged across areas). […] The high-magnification analysis of TH fibers on random sample areas was complemented by optical density (O.D.) measurements of TH immunostaining across the entire dorsolateral and ventro-lateral striatum. […]
# [3] = tested on: TH immunostaining, ventrolateral and dorsolateral striatum
# Description: Results were expressed as the total number of TH-immunopositive pixels per sample area (averaged across areas). […] The high-magnification analysis of TH fibers on random sample areas was complemented by optical density (O.D.) measurements of TH immunostaining across the entire dorsolateral and ventro-lateral striatum. Although this method is much less sensitive than the actual fiber analysis [Francardo V, Bez F, Wieloch T, Nissbrandt H, Ruscher K, Cenci 33. MA. […] Brain: A Journal of Neurology.
# The O.D. analysis was carried out in the same rostrocaudal levels using NIH Image J Software, as described in [Francardo V, Recchia A, Popovic N, Andersson D, Nissbrandt H, Cenci M A. Impact of the lesion procedure on the profiles of motor impairment and molecular responsiveness to L-DOPA in the 6-hydroxydopamine mouse model of Parkinson's disease. Neurobiology of Disease.
# [4] = tested on: STHdhQ7/7 cells expressing Htt96Q-mCherry or Htt20Q-mCherry; settings: cells without aggregates or cells expressing Htt20Q-mCherry
# Description: H2a-GFP was transiently co-expressed with Htt20Q-mCherry or Htt96Q-mCherry (exon 1) in STHdhQ7/7 cells. H2a-GFP aggregation is a marker of cell stress. […] For comparative purposes, 100% represents H2a-GFP relative intensity in untreated cells showing Htt96Q-mCherry aggregates, 0% is H2a-GFP relative intensity in untreated cells without Htt96Q-cherry aggregates.
# ER stress levels can be measured using H2a-GFP as protein indicator of early stages of ER stress. H2a-GFP is a misfolded secretory protein which in response to ER stress accumulates. The STHdhQ7/7 is a striatal derived cell line from a knock in transgenic mouse containing homozygous humanized Huntingtin gene (HTT) with 7 polyglutamine repeats (wild type). STHdhQ7/7 cells are transfected with either Htt96Q-mCherry (mutant, mimics the typical pathogenic expression of Htt in HD patients) or Htt20Q-mCherry (normal) constructs. When the polyQ-expanded Htt protein (96Q) exonl fused to fluorescent mCherry protein is expressed, the levels and aggregation of the protein in individual cells can be monitored using a fluorescent microscope.
# WT and YAC128 neurons = settings: 24 h treatment; after oligomycin plus FCCP
# Experimental: Mitochondrial function was assayed by measuring the levels of the fluorescent probe MitoPY1, which detects H2O2 levels in mitochondria. Mitochondrial membrane potential (MMP) was assessed in cortical and striatal neurons using the positively changed fluorescent probe TMRM (tetramethylrhodamine methyl ester). […] Under these conditions, retention of TMRM by mitochondria was studied to estimate changes in Dym. […] TMRM release was calculated based in the differences in fluorescence before and after addition of oligomycin/FCCP.
smiles,measurement,setting,value
"CCCN1CCC(c2cccc(S(C)(=O)=O)c2)CC1 [pridopidine, 4-[3-(methylsulfonyl)phenyl]-1-propyl-piperidine]","cylinder test, contralateral forelimb use",6-OHDA-lesioned mice; 0.3 mg/kg s.c. daily,reaching levels of performance comparable with sham-control values on weeks 4 and 5
same,"cylinder test, contralateral forelimb use",6-OHDA-lesioned mice; 1.0 mg/kg s.c. daily,did not restore contralateral forelimb use in the cylinder test
same,"cylinder test, contralateral forelimb use, difference vs sham","6-OHDA-lesioned mice; 1.0 mg/kg s.c. daily, week 5",~33%
same,"cylinder test, contralateral forelimb use, difference vs sham","6-OHDA-lesioned mice; week 1, pridopidine-treated mice (0.3 or 1.0 mg/kg)",~40%
same,increase in TH-positive neurons relative to saline treatment,[1]; 0.3 mg/kg s.c. daily,~55%
same,"number of TH-positive neurons, SNc ipsilateral to the lesion",[1]; 0.3 mg/kg s.c. daily,3034 cells
same,"number of TH-positive neurons, SNc ipsilateral to the lesion",[1]; 1.0 mg/kg s.c. daily,~1901 cells
same,protection of dopaminergic cell bodies in SNc,"[1]; 1.0 mg/kg s.c. daily, vs saline","did not, however, confer significant protection of dopaminergic cell bodies in SNc"
same,"TH fiber profiles, increase in median values relative to saline",[2]; 0.3 mg/kg s.c. daily,about 15 fold
same,TH fiber profiles vs saline,[2]; 1.0 mg/kg s.c. daily,did not achieve statistical significance
same,TH O.D. vs saline,"[3]; 0.3 mg/kg, dorsolateral striatum","significant, albeit smaller increase"
same,TH O.D. above saline control levels,"[3]; 0.3 mg/kg, ventrolateral striatum",greater than twofold increase
same,TH O.D. vs saline,"[3]; 1 mg/kg, dorsolateral striatum",only a trend
same,TH O.D. vs saline,"[3]; 1 mg/kg, ventrolateral striatum",trend towards an increase that did not reach statistical significance
same,H2a-GFP levels,[4],does not alter H2a-GFP levels
same,mitochondrial membrane potential (ΔΨm),WT and YAC128 neurons,increases mitochondrial membrane potential
